Test results reported in patent US4107298A, “Antigenically active polypeptide and a process for its preparation” (AB Bonnierforetagen, priority 1976, dated 1978).
No end group written: not given here.

Test system: antibodies specific to TPA (prepared by using natural cancer antigen, CAPA or TPA)
Test: hemagglutination inhibition test
Type: binding
Settings: for immunological activity after coupling to inert albumin: coupled to inert bovine albumin, molar ratio about 1:1, by water soluble carbodiimide (EDC)
Text: The polypeptide prepared according to the foregoing was investigated with regard to its ability to inhibit the hemagglutination reaction between tanned red sheep blood cells labelled with natural cancer antigen and antibodies prepared by using natural cancer antigen (CAPA or TPA). With regard to details concerning this technique reference is had to the above-identified Swedish patent application 73-08917-9 and U.S. Pat. No. 3,960,827. […] Said Unit for specific activity is defined as 1/6 of the quantity active polypeptide required to label 10^9 sheep blood cells so as to be fully agglutinated by a minimum number or amount of antibodies (maximum dilution of antibodies).
In Example 1 as described above the antigenic activity of the synthesized polypeptide was determined in the following manner.
For quantitative determination of the amount of polypeptide 7 mgs of the peptide are dissolved in 1.4 mls of buffer grade serum, i.e. a physiological saline solution containing 2% of inert human serum and buffered to a pH of about 7.5 with a phosphate buffer. Under serial dilution a series of samples of said solution having a decreasing polypeptide concentration is prepared and to each of said samples there is added a pre-determined amount of anti-serum containing antibodies specific to TPA. To each of the resulting samples there is then added, after incubation, a predetermined amount of the polypeptide carried on a particulate carrier, hemagglutination taking place to an extent corresponding to the amount of available antibodies. In parallel there is prepared a corresponding series of control samples containing known decreasing amounts of TPA. The diameters of the hemagglutination depositions of the control samples are then measured in their respective cavities on a serial dilution test plate, and the values of the diameters obtained are plotted against the TPA concentrations, an S-shaped curve being obtained, the intermediate part of which including an inflexion point as a steep inclination. The corresponding curve of the diameter of the depositions from the hemagglutination as a function of the TPA-concentrations is shown in the diagram of the appended drawing, as curve B.
In the same diagram the corresponding curve for the synthesized polypeptide is shown as A, and with knowledge of the specific activity of the TPA the specific activity of the synthesized polypeptide is found to be 0.024 Units per milligram of peptide.

In the case of ALLNDELAQYLDLVRALEAANGQLEV [Example 1], the activity lowered (basic environment only, pH 13, same period of time, no cyclohexanedione) was “about 20%”, the loss of activity (centrally positioned arginine A0 blocked with cyclohexanedione at pH 13) was 99.5% and the specific activity (inhibition of hemagglutination between tanned red sheep blood cells labelled with natural cancer antigen and anti-TPA antibodies, compared with the TPA control curve) was 0.024 U/mg. For the same sequence, the activity disappears (treated with iodine at pH 9.5, 100 times excess) was 40-50%, the activity lost (treated with iodine at pH 9.5, 1000 times excess) was “about 75%” and the activity lost (treated with iodine at pH 9.5, excess of about 10000 times in relation to tyrosine content) was “about 85%”. The “activity of the polypeptide” value (treated with iodine at pH 9.5, excess of only about 10 times) was “not effected”.
ALLNDILAQYLDLVRALEAANGRLEV [Example 25] was tested, and the “immunological activity compared with the polypeptide of Example 1” value was “about equally immunologically active”.
For “AQYLDLVRALEAANGELEV [Example 3, Ala Gln Tyr Leu Asp Leu Val Arg Ala Leu Glu Ala Ala Asn Gly Glu Leu Glu Val]”, the “immunological activity compared with the polypeptide of Example 1” value was “about equally immunologically active” and the “immunological activity after coupling to inert albumin” value was “maintained”.
In the case of “DDRLAKYLDKVRALEAADG [Example 6, Asp Asp Arg Leu Ala Lys Tyr Leu Asp Lys Val Arg Ala Leu Glu Ala Ala Asp Gly]”, the “immunological activity compared with the polypeptide of Example 1” value was “about equally immunologically active”.
In the case of LNDELAQYLDLVRALEAANGRLEV [Example 4], the “immunological activity compared with the polypeptide of Example 1” value was “about equally immunologically active” and the “immunological activity after coupling to inert albumin” value was “maintained”.
“NDILAQYLDLVRALEAANG [Example 5, Asn Asp Ile Leu Ala Gln Tyr Leu Asp Leu Val Arg Ala Leu Glu Ala Ala Asn Gly]” was tested, and the “immunological activity compared with the polypeptide of Example 1” value was “about equally immunologically active”.
For TDLDDRLAKYLDKVRALEAADGELEV [Example 2], the “immunological activity compared with the polypeptide of Example 1” value was “about equally immunologically active”.
